These results are taken from ChEMBL document CHEMBL4184211, “Regioselectivity of thiouracil alkylation: Application to optimization of Darapladib synthesis” (Bioorg Med Chem Lett, 2018).

For assay [1], the target named is T1, Platelet-activating factor acetylhydrolase (Homo sapiens) (UniProt Q13093).
T1 sequence (whole entry): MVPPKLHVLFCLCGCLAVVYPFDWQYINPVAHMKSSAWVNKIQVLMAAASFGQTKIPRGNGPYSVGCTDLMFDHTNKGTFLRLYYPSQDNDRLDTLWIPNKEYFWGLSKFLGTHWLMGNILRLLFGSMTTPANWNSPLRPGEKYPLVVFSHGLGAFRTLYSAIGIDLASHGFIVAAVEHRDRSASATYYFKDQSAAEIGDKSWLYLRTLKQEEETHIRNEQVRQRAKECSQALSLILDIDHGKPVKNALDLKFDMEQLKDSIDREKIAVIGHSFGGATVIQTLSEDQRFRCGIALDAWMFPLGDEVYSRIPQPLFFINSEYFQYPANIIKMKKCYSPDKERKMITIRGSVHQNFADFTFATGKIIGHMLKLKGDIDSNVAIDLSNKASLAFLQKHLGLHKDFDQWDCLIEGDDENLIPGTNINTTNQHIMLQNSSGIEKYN
The experiment in a line: (§1) Inhibition of Lp-PLA2 in human plasma LDL fractions using 2-thio platelet-activating factor as substrate by […] dye based spectrophotometry.

Assay [2] deals with T2, Platelet-activating factor acetylhydrolase (Homo sapiens, UniProt Q13093).
T2 sequence (Q13093 whole entry): T1 sequence (whole entry)
The assay is described as §1.

What is called IC50 is the concentration that gives 50% inhibition.

On to `CC(C)(C)OC(=O)Cn1c(SCc2ccc(F)cc2)nc(=O)c2c1CCC2`, for which the inhibition entry in assay [1] was “Dose-dependent effect”. Besides, the IC50 in assay [2] (read-out: IC50) came out at 52.4 nM. Turning to `CCN(CC)CCN(Cc1ccc(-c2ccc(C(F)(F)F)cc2)cc1)C(=O)COc1nc(SCc2ccc(F)cc2)nc2c1CCC2`, the IC50 in assay [2] (read-out: IC50) is more than 100 nM.

Turning to `CC(C)(C)OC(=O)COc1nc(SCc2ccc(F)cc2)nc2c1CCC2`, the IC50 entry in assay [2] is “Not Active”.
